Measured values published in the supplement of paper PMC10307832.

How the values were obtained:
Test in all cases: relative viability (nuclei count vs DMSO), 5 days (fraction); higher = more cells survive
Metformin + Pemetrexed = compound: CN(C)C(=N)NC(=N)N [Metformin] + Nc1nc2[nH]cc(CCc3ccc(C(=O)N[C@@H](CCC(=O)O)C(=O)O)cc3)c2c(=O)[nH]1 [Pemetrexed] (partner 0.2 µM)
In short: (§1)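 Dosing by pin tool came one day after lung cancer cell lines were seeded in 1536-well plates, using either one drug or a fixed anchor-drug dose plus five library-drug doses (not always all listed) in √10 steps. After 5 days, nuclei were counted on 4× images. Relative viability is treated-well nuclei count divided by vehicle-well nuclei count, and values are medians of duplicate plates.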

Apatinib + Vorinostat = compound: N#CC1(c2ccc(NC(=O)c3cccnc3NCc3ccncc3)cc2)CCCC1 [Apatinib] + O=C(CCCCCCC(=O)Nc1ccccc1)NO [Vorinostat] (partner 1 µM)
In short: as §1

Apatinib + Pictilisib = compound: N#CC1(c2ccc(NC(=O)c3cccnc3NCc3ccncc3)cc2)CCCC1 [Apatinib] + CS(=O)(=O)N1CCN(Cc2cc3nc(-c4cccc5[nH]ncc45)nc(N4CCOCC4)c3s2)CC1 [Pictilisib] (partner 1 µM)
In short: as §1

Metformin + Olaparib = compound: CN(C)C(=N)NC(=N)N [Metformin] + O=C(c1cc(Cc2n[nH]c(=O)c3ccccc23)ccc1F)N1CCN(C(=O)C2CC2)CC1 [Olaparib] (partner 8 µM)
In short: as §1

Row | Cell Line | relative viability (Metformin + Pemetrexed; first compound 10 µM) | relative viability (Metformin + Pemetrexed; first compound 31.62 µM) | relative viability (Metformin + Pemetrexed; first compound 100 µM) | relative viability (Metformin + Pemetrexed; first compound 316.23 µM) | relative viability (Metformin + Pemetrexed; first compound 1000 µM) | relative viability (Apatinib + Vorinostat; first compound 0.08 µM) | relative viability (Apatinib + Vorinostat; first compound 0.253 µM) | relative viability (Apatinib + Vorinostat; first compound 0.8 µM) | relative viability (Apatinib + Vorinostat; first compound 2.53 µM) | relative viability (Apatinib + Vorinostat; first compound 8 µM) | relative viability (Apatinib + Pictilisib; first compound 0.08 µM) | relative viability (Apatinib + Pictilisib; first compound 0.253 µM) | relative viability (Apatinib + Pictilisib; first compound 0.8 µM) | relative viability (Apatinib + Pictilisib; first compound 2.53 µM) | relative viability (Apatinib + Pictilisib; first compound 8 µM) | relative viability (Metformin + Olaparib; first compound 10 µM) | relative viability (Metformin + Olaparib; first compound 31.62 µM) | relative viability (Metformin + Olaparib; first compound 100 µM) | relative viability (Metformin + Olaparib; first compound 316.23 µM) | relative viability (Metformin + Olaparib; first compound 1000 µM)
1 | NCI-H2126 | 0.648 | 0.658 | 0.672 | 0.579 | 0.71 | 0.86 | 0.717 | 0.671 | 0.768 | 0.755 | 0.52 | 0.398 | 0.473 | 0.505 | 0.479 | 0.767 | 0.88 | 0.911 | 0.833 | 0.856
2 | LK-2 | 0.319 | 0.292 | 0.255 | 0.237 | 0.306 | 0.267 | 0.269 | 0.248 | 0.145 | 0.228 | 0.532 | 0.511 | 0.484 | 0.326 | 0.428 | 0.79 | 0.509 | 0.644 | 0.734 | 0.873
3 | COR-L23 | 0.196 | 0.186 | 0.209 | 0.195 | 0.203 | 0.516 | 0.461 | 0.333 | 0.415 | 0.427 | 0.966 | 0.777 | 0.788 | 0.65 | 0.658 | 0.256 | 0.3 | 0.336 | 0.231 | 0.254
4 | NCI-H1915 |  | 0.438 | 0.404 | 0.379 | 0.435 | 0.578 | 0.519 | 0.495 | 0.37 | 0.314 | 1.12 | 0.91 | 0.943 | 0.878 | 0.752 |  | 0.24 | 0.228 | 0.222 | 0.244
5 | NCI-H2228 | 0.313 | 0.199 | 0.381 | 0.28 | 0.337 | 0.535 | 0.703 | 0.538 | 0.55 | 0.639 | 0.338 | 0.417 | 0.451 | 0.355 | 0.539 | 0.399 | 0.344 | 0.483 | 0.802 | 0.578
6 | NCI-H23 | 0.679 | 0.852 | 0.652 | 0.586 | 0.79 | 0.696 | 0.793 | 0.568 | 0.491 | 0.524 | 0.547 | 0.522 | 0.458 | 0.426 | 0.492 | 0.252 | 0.299 | 0.279 | 0.26 | 0.293
7 | NCI-H596 | 0.582 | 0.563 | 0.546 | 0.498 | 0.539 | 0.703 | 0.58 | 0.672 | 0.492 | 0.546 | 0.419 | 0.402 | 0.353 | 0.32 | 0.383 | 0.817 | 0.795 | 0.78 | 0.74 | 0.734
